Results published in patent US20130287807A1, “COMPOUNDS FOR TREATING SYMPTOMS ASSOCIATED WITH PARKINSON'S DISEASE” (priority 2008, published 2013).

What was measured:
[1] = test system: monoclonal antibody MV-002; assay: In vitro inhibition assay (ELISA), MV-002 binding to original epitope; parameters: species or system C57/B16 mice; conditions: Table 2 (MV-002); OD at 5 ug peptide compared to original peptide
Experimental: (§1) Different amounts of peptides (concentrations ranging from 10 μg to 0.08 μg; serial dilutions; for MV-002: concentrations ranging from 5 μg to 0.03 μg; serial dilutions), derived from Phage Display were incubated with the monoclonal antibody that was used for the screening procedure. Peptides diminishing subsequent binding of the antibody to the original epitope coated on ELISA plates were considered as inhibiting in this assay.
(§2) Legend to Table 2: the inhibition capacity is coded by the following code: Weak inhibition means more peptide is required to lower AB binding than with the original epitope; strong inhibition means similar peptide amounts are required for mimotope and original epitope for lowering AB binding. Mimotopes are compared to the original peptide as standard. OD at 5 ug peptide used in the assay is used to calculate the competition capacity compared to original peptide.

[2] = test system: monoclonal antibody MV-002; assay: In vitro binding assay (ELISA), BSA-coupled peptides, parental antibody MV-002; parameters: species or system C57/B16 mice; conditions: Table 1 (MV-002); peptide-BSA on plate, compared to original epitope
Experimental: (§3) Peptides derived from Phage Display as well as variants thereof were coupled to BSA and bound to ELISA plates (1 μM; as indicated in the respective figures) and subsequently incubated with the monoclonal antibody that was used for the screening procedure to analyse binding capacity of identified peptides.
Legend to Table 1: the binding capacity is coded by the following binding code: 1:X describes the dilution factor of the parental AB. Ac- . . . indicates acetylated AA.

[3] = test system: Aβ/truncated/modified forms; assay: In vivo characterisation of mimotopes: detection of Aβ/truncated/modified forms; parameters: species or system C57/B16 mice; key: +: All peptides listed in Table 4 mount specific immune reactions against full length and/or truncated and modified forms of Aβ or fragments thereof; conditions: Table 4, MV-001 derived mimotopes
Experimental: (§4) Inhibiting as well as non-inhibiting peptides were coupled to KLH and injected into mice (wildtype C57/B16 mice; subcutaneous injection into the flank) together with an appropriate adjuvant (aluminium hydroxide). Animals were vaccinated 3-6 times in biweekly intervals and sera were taken biweekly as well. Titers to injected peptides, as well as to an irrelevant peptide were determined with every serum. Furthermore, titers against the recombinant human Aβ protein, and against original peptides were determined respectively. In general sera were analysed by reaction against peptides coupled to Bovine Serum Albumin (BSA) and recombinant full length proteins which were immobilised on ELISA plates. Titers were determined using anti mouse IgG specific antibodies. For detailed results see FIGS. 15, 16 and 17 respectively and FIGS. 23, 24 and 25 respectively.
(§5) Female C57/b16 mice, 5-6 mice per group, were subcutaneously immunized with 30 μg peptide coupled to KLH. Control groups were administered original epitope-KLH conjugates respectively. As adjuvant alum was used (always 1 mg per mouse). […] The in vitro ELISA assay to determine the antibody titer was performed with sera of single mice after each vaccination in a two week interval (see FIGS. 15 and 16 respectively). The wells of the ELISA plate were coated with mimotope-BSA conjugate and an irrelevant peptide-BSA conjugate (negative control). The positive control was performed by reaction of the parental antibody with the respective mimotope-BSA conjugate. The detection was performed with anti-mouse IgG. Additionally, recombinant proteins were immobilised on ELISA plates and sera reacted accordingly. FIGS. 15 to 17 show representative examples for assays used to characterise mimotopes in vivo.
as §5, with “FIGS. 25” for “FIGS. 15”, “and 26” for “and 16”, “respectively). Titers were calculated as OD max/2 in all figures shown.” for “respectively).”, “FIGS. 23, 24 and 25” for “FIGS. 15 to 17”

[4] = test system: monoclonal antibody MV-001; assay: In vitro binding assay (ELISA), BSA-coupled peptides, parental antibody MV-001; parameters: species or system C57/B16 mice; conditions: Table 1C; peptide-BSA on plate, compared to original epitope
Experimental: as §3
Legend to Table 1C: the binding capacity is coded by the following binding code: 1:X describes the dilution factor of the parental AB

[5] = test system: monoclonal antibody MV-001; assay: In vitro inhibition assay (ELISA), MV-001 binding to original epitope; parameters: species or system C57/B16 mice; conditions: Table 2C; OD at 10 ug peptide compared to original peptide
Experimental: as §1
as §2, with “2C:” for “2:”, “10” for “5”

[6] = test system: Aβ/truncated/modified forms; assay: In vivo characterisation of mimotopes: detection of Aβ/truncated/modified forms; parameters: species or system C57/B16 mice; key: +: All peptides listed in table 4 mount specific immune reactions against full length and/or truncated and modified forms of Aβ or fragments thereof; conditions: Table 4, MV-002 derived mimotopes
Experimental: as §4, §5
as §5, with “FIGS. 25” for “FIGS. 15”, “and 26” for “and 16”, “respectively). Titers were calculated as OD max/2 in all figures shown.” for “respectively).”, “FIGS. 23, 24 and 25” for “FIGS. 15 to 17”

[7] = biological target: monoclonal antibody MV-002; assay: ELISA on peptide-BSA; code 1 = weak binding, OD halfmax 1:<40000
[8] = biological target: monoclonal antibody MV-001; assay: inhibition ELISA, competitor coated original epitope p4371; code 1 = weaker than original epitope
[9] = biological target: monoclonal antibody MV-001; assay: ELISA on peptide-BSA; code 2 = medium binding, OD halfmax 1:4000-20000

Molecule | Binding Capacity [2] | Binding Capacity [4] | Detection of Aβ/truncated/modified forms [3] | Inhibition Capacity [5] | also measured
GEILFGMC [p4689] | 3 (strong binding :>320000) |  |  |  | Inhibition Capacity [1]: 1 (Weaker than original epitope (OD of peptide below 4, 6 times of original peptide))
SEFKHGC [p4381] |  | 3 (strong binding :>20000) | + | 1 (Weaker than original epitope (OD of 10 ug peptide below 3 times of original peptide)) | 
ADHDFRHC [p4740] |  | 3 (strong binding :>20000) | + | 1 (Weaker than original epitope (OD of 10 ug peptide below 3 times of original peptide)) | 
QSEFKHWC [p4738] |  | 3 (strong binding :>20000) | + | 1 (Weaker than original epitope (OD of 10 ug peptide below 3 times of original peptide)) | 
SGEYVFHC [p4404] | 1 (weak binding :<40000) |  |  |  | Detection of Aβ/truncated/modified forms [6]: +
SGQIWFRC [p4414] | 1 (weak binding :<40000) |  |  |  | Detection of Aβ/truncated/modified forms [6]: +
NDAKIVFC [p4667] | 3 (strong binding :>320000) |  |  |  | Inhibition Capacity [1]: 1 (Weaker than original epitope (OD of peptide below 4, 6 times of original peptide))
GEIQFGAC [p4699] | 3 (strong binding :>320000) |  |  |  | Detection of Aβ/truncated/modified forms [6]: +; Inhibition Capacity [1]: 1 (Weaker than original epitope (OD of peptide below 4, 6 times of original peptide))
THQRLWFC [p4693] | 3 (strong binding :>320000) |  |  |  | Detection of Aβ/truncated/modified forms [6]: +
TEFRHKAC [p4753] |  | 3 (strong binding :>20000) | + | 2 (strong inhibition (as original epitope; OD of 10 ug peptide below 2 times of original peptide)) | 
ILFRHGC [p4390] |  | 3 (strong binding :>20000) | + | 1 (Weaker than original epitope (OD of 10 ug peptide below 3 times of original peptide)) | 
SGQLKFPC [p4413] | 1 (weak binding :<40000) |  |  |  | Detection of Aβ/truncated/modified forms [6]: +
SQFRHYC [p4385] |  | 2 (medium binding :4000-20000) | + | 1 (Weaker than original epitope (OD of 10 ug peptide below 3 times of original peptide)) | 
SGEYVFHC [p4404] |  |  |  |  | OD halfmax dilution factor of the parental antibody (1:X) (dilutionfactor(1:x)) [7]: < 40000
SHTRLYFC [p4403] |  |  |  |  | OD halfmax dilution factor of the parental antibody (1:X) (dilutionfactor(1:x)) [7]: < 40000
SHFRHGC [p4389] |  |  |  |  | OD at 10 ug peptide relative to OD of original peptide (inhibition ELISA) [8]: 2 to 3 fold; OD halfmax 1:X (dilution factor of the parental antibody at half-maximal OD) (dilutionfactor(1:x)) [9]: 4000 to 20000
QFKHDLC [p4391] |  |  |  |  | OD at 10 ug peptide relative to OD of original peptide (inhibition ELISA) [8]: 2 to 3 fold; OD halfmax 1:X (dilution factor of the parental antibody at half-maximal OD) (dilutionfactor(1:x)) [9]: 4000 to 20000
SGQLKFPC [p4413] |  |  |  |  | OD halfmax dilution factor of the parental antibody (1:X) (dilutionfactor(1:x)) [7]: < 40000
EEFKYSC [p4393] |  |  |  |  | OD at 10 ug peptide relative to OD of original peptide (inhibition ELISA) [8]: 2 to 3 fold; OD halfmax 1:X (dilution factor of the parental antibody at half-maximal OD) (dilutionfactor(1:x)) [9]: 4000 to 20000
LPFRHGC [p4388] |  |  |  |  | OD at 10 ug peptide relative to OD of original peptide (inhibition ELISA) [8]: 2 to 3 fold; OD halfmax 1:X (dilution factor of the parental antibody at half-maximal OD) (dilutionfactor(1:x)) [9]: 4000 to 20000

Continued, in another order:

Binding Capacity [2] | Binding Capacity [4] | Molecule | Detection of Aβ/truncated/modified forms [3] | Inhibition Capacity [5] | also measured
3 (strong binding :>320000) |  | GELWFPC [p4673] |  |  | Detection of Aβ/truncated/modified forms [6]: +; Inhibition Capacity [1]: 1 (Weaker than original epitope (OD of peptide below 4, 6 times of original peptide))
3 (strong binding :>320000) |  | SHQRLWFC [p4674] |  |  | Inhibition Capacity [1]: 1 (Weaker than original epitope (OD of peptide below 4, 6 times of original peptide))
 | 3 (strong binding :>20000) | LMFRHNC [p4386] | + | 1 (Weaker than original epitope (OD of 10 ug peptide below 3 times of original peptide)) | 
 | 3 (strong binding :>20000) | ELFKHHLC [p4714] | + |  | 
3 (strong binding :>320000) |  | GEIKFDHC [p4698] |  |  | Detection of Aβ/truncated/modified forms [6]: +; Inhibition Capacity [1]: 2 (strong inhibition (as original epitope; OD of peptide below 2, 3 times of original peptide))
 | 3 (strong binding :>20000) | SPNQFRHC [p4707] | + | 1 (Weaker than original epitope (OD of 10 ug peptide below 3 times of original peptide)) | 
 | 3 (strong binding :>20000) | THTDFRHC [p4725] | + | 1 (Weaker than original epitope (OD of 10 ug peptide below 3 times of original peptide)) | 
1 (weak binding :<40000) |  | SGEIHFNC [p4415] |  |  | Detection of Aβ/truncated/modified forms [6]: +
2 (medium binding :40000-320000) |  | HQKMIFC [p4794] |  |  | Inhibition Capacity [1]: 1 (Weaker than original epitope (OD of peptide below 4, 6 times of original peptide))
 | 3 (strong binding :>20000) | TLHEFRHC [p4715] | + | 2 (strong inhibition (as original epitope; OD of 10 ug peptide below 2 times of original peptide)) | 
 | 3 (strong binding :>20000) | DEHPFRHC [p4730] | + | 1 (Weaker than original epitope (OD of 10 ug peptide below 3 times of original peptide)) | 
 | 3 (strong binding :>20000) | TSVFRHC [p4383] | + | 1 (Weaker than original epitope (OD of 10 ug peptide below 3 times of original peptide)) | 
3 (strong binding :>320000) |  | GEIRFGSC [p4696] |  |  | Detection of Aβ/truncated/modified forms [6]: +
 | 3 (strong binding :>20000) | YEFRHAQC [p4748] | + |  | 
